Test results reported in patent US11180504B2 (ORCHID PHARMA LTD., priority 2016, dated 2021).
Converted amounts (≈) assume the structure as drawn. Like-named read-outs stand apart in the source and are kept apart here.

How the values were obtained:
[1] = test system: carbapenem sensitive Escherichia coli; test: MIC by broth micro-dilution (CLSI), carbapenem sensitive E. coli; assay type: cell-based; conditions: Escherichia coli, ATCC25922, ESBL −ve E. coli ATCC25922; read-out: MIC
[2] = test system: carbapenem sensitive Pseudomonas aeruginosa; test: MIC by broth micro-dilution (CLSI), carbapenem sensitive P. aeruginosa; assay type: cell-based; conditions: Pseudomonas aeruginosa, ATCC27853, Meropenem susceptible P. aeruginosa ATCC27853; read-out: MIC
[3] = test system: carbapenemase producing K. pneumoniae; test: MIC by broth micro-dilution (CLSI), carbapenemase producing K. pneumoniae; assay type: cell-based, Klebsiella pneumoniae
[4] = test system: methicillin-sensitive Staphylococcus aureus; test: MIC by broth micro-dilution (CLSI), methicillin-sensitive S. aureus; assay type: cell-based; conditions: Staphylococcus aureus, ATCC 29213 / MSSA, MSSA S. aureus ATCC29213; read-out: MIC
[5] = Klebsiella pneumoniae, ATCCBAA1705, KPC-2 K. pneumoniae ATCC BAA-1705, read-out: MIC

Row | SMILES | MIC [1] | MIC [2] | MIC [3, 5] | MIC [4] | MIC ([3]; KPC-2 K. pneumoniae ATCC BAA-1705)
1 | C[C@@H]1C(S[C@@H]2CN[C@H](C(=O)N(C)C)C2)=C(C(=O)O)N2C(=O)[C@H]([C@@H](C)NC(=O)C(F)F)[C@@H]12 [Example 337, (4S,5S,6R)-6-((R) - 1-(2,2-difluoroacetamido)ethyl)-3-((3S,5S)-5-(dimethylcarbamoyl)pyrrolidin-3-ylthio)-4-methyl-7-oxo-1-azabicyclo[3.2.0]hept-2-ene-2-carboxylic acid] | 0.5 µg/mL (≈ 1.09 µM) | 32 µg/mL (≈ 69.5 µM) | 1 µg/mL (≈ 2.17 µM) | 2 µg/mL (≈ 4.34 µM) | 
2 | CNCC(=O)N[C@H](C)[C@H]1C(=O)N2C(C(=O)O)=C(S[C@@H]3CN[C@H](C(=O)N4CC(C)(N)C4)C3)[C@H](C)[C@H]12 [Example 292] | 4 µg/mL (≈ 8.09 µM) | 16 µg/mL (≈ 32.3 µM) | 8 µg/mL (≈ 16.2 µM) | 128 µg/mL (≈ 259 µM) | 
3 | C[C@@H](NC(=O)Cn1cnnn1)[C@H]1C(=O)N2C(C(=O)O)=C(S[C@@H]3CN[C@H](C(=O)N4CC5CCNC5C4)C3)[C@H](C)[C@H]12 (stereo partly drawn) [Example 505, (4R,5S,6R)-6-((R)-1-(2-(1H-tetrazol-1-yl)acetamido)ethyl)-4-methyl-3-((3S,5S)-5-(octahydropyrrolo[3,4-b]pyrrole-5-carbonyl)pyrrolidin-3-ylthio)-7-oxo-1-azabicyclo[3.2.0]hept-2-ene-2-carboxylic acid] | 0.25 µg/mL (≈ 0.447 µM) | 1 µg/mL (≈ 1.79 µM) | 1 µg/mL (≈ 1.79 µM) | 2 µg/mL (≈ 3.57 µM) | 
4 | C[C@@H](NC(=O)Cn1cnnn1)[C@H]1C(=O)N2C(C(=O)O)=C(S[C@@H]3CN[C@H](C(=O)N4CCCC45CCCNC5)C3)[C@H](C)[C@H]12 (stereo partly drawn) [Example 503, (4R,5S,6R)-3-((3S,5S)-5-(1,7-diazaspiro[4.5]decane-1-carbonyl)pyrrolidin-3-ylthio)-6-((R)-1-(2-(1H-tetrazol-1-yl)acetamido)ethyl)-4-methyl-7-oxo-1-azabicyclo[3.2.0]hept-2-ene-2-carboxylic acid] | 0.5 µg/mL (≈ 0.851 µM) | 16 µg/mL (≈ 27.2 µM) |  | 2 µg/mL (≈ 3.4 µM) | 1 µg/mL (≈ 1.7 µM)
5 | C[C@@H](NC(=O)Cn1cnnn1)[C@H]1C(=O)N2C(C(=O)O)=C(S[C@@H]3CN[C@H](C(=O)N4CC[C@H](N)C4)C3)[C@H](C)[C@H]12 [Example 324] | 0.5 µg/mL (≈ 0.937 µM) | 4 µg/mL (≈ 7.5 µM) | 4 µg/mL (≈ 7.5 µM) | 4 µg/mL (≈ 7.5 µM) | 
6 | CNC[C@@H]1CCCN1CC(=O)N[C@H](C)[C@H]1C(=O)N2C(C(=O)O)=C(S[C@@H]3CN[C@H](C(=O)N(C)C)C3)[C@H](C)[C@H]12 [Example 520, (4R,5S,6R)-3-((3S,5S)-5-(dimethylcarbamoyl)pyrrolidin-3-ylthio)-4-methyl-6-((R)-1-(2-((S)-2-((methylamino)methyl)pyrrolidin-1-yl)acetamido)ethyl)-7-oxo-1-azabicyclo[3.2.0]hept-2-ene-2-carboxylic acid] | 2 µg/mL (≈ 3.73 µM) | > 128 µg/mL | 16 µg/mL (≈ 29.8 µM) | 16 µg/mL (≈ 29.8 µM) | 
7 | C[C@H]([C@H]1C(=O)N2C(C(=O)O)=C(S[C@@H]3CN[C@H](C(=O)N(C)C)C3)[C@H](C)[C@H]12)n1cnnn1 [Example 319, (4R,5S,6S)-6-((R)-1-(1H-tetrazol-1-yl)ethyl)-3-((3S,5S)-5-(dimethylcarbamoyl)pyrrolidin-3-ylthio)-4-methyl-7-oxo-1-azabicyclo[3.2.0]hept-2-ene-2-carboxylic acid] | 0.25 µg/mL (≈ 0.574 µM) | 32 µg/mL (≈ 73.5 µM) | 1 µg/mL (≈ 2.3 µM) | 2 µg/mL (≈ 4.59 µM) | 
8 | C[C@@H](NC(=O)Cn1nnnc1C(F)F)[C@H]1C(=O)N2C(C(=O)O)=C(S[C@@H]3CN[C@H](C(=O)N4CC[C@@H](N)C4)C3)[C@H](C)[C@H]12 [Example 349, (4R,5S,6R)-3-((3S,5S)-5-((R)-3-aminopyrrolidine-1-carbonyl)pyrrolidin-3-ylthio)-6-((R)-1-(2-(5-(difluoromethyl)-1H-tetrazol-1-yl)acetamido)ethyl)-4-methyl-7-oxo-1-azabicyclo[3.2.0]hept-2-ene-2-carboxylic acid] | 0.25 µg/mL (≈ 0.428 µM) | 32 µg/mL (≈ 54.8 µM) | 4 µg/mL (≈ 6.85 µM) | 4 µg/mL (≈ 6.85 µM) | 
9 | C[C@@H](NC(=O)Cn1cnnn1)[C@H]1C(=O)N2C(C(=O)O)=C(SCCNC(=N)N)[C@H](C)[C@H]12 [Example 579, (4R,5S,6R)-6-((R)-1-(2-(1H-tetrazol-1-yl)acetamido)ethyl)-3-(2-guanidinoethylthio)-4-methyl-7-oxo-1-azabicyclo[3.2.0]hept-2-ene-carboxylic acid] | 0.25 µg/mL (≈ 0.571 µM) | 16 µg/mL (≈ 36.6 µM) | 1 µg/mL (≈ 2.29 µM) | 4 µg/mL (≈ 9.14 µM) | 

Continued by falling MIC [1], values first:

Row | MIC [1] | MIC [2] | MIC [3, 5] | MIC [4] | MIC ([3]; KPC-2 K. pneumoniae ATCC BAA-1705) | SMILES
10 | 8 µg/mL (≈ 15.4 µM) | > 128 µg/mL | 32 µg/mL (≈ 61.6 µM) | 32 µg/mL (≈ 61.6 µM) |  | C[C@@H](NC(=O)[C@@H](N)Cn1cccn1)[C@H]1C(=O)N2C(C(=O)O)=C(S[C@@H]3CN[C@H](C(=O)N(C)C)C3)[C@H](C)[C@H]12 [Example 311, (4R,5S,6R)-6-((R) - 1-((S)-2-amino-3-(1H-pyrazol-1-yl)propanamido)ethyl)-3-((3S,5S)-5-(dimethylcarbamoyl)pyrrolidin-3-ylthio)-4-methyl-7-oxo-1-azabicyclo[3.2.0]hept-2-ene-2-carboxylic acid]
11 | 2 µg/mL (≈ 4.16 µM) | 4 µg/mL (≈ 8.32 µM) | 4 µg/mL (≈ 8.32 µM) | 8 µg/mL (≈ 16.6 µM) |  | C[C@@H](NC(=O)CN)[C@H]1C(=O)N2C(C(=O)O)=C(S[C@@H]3CN[C@H](C(=O)N4CC[C@@H](N)C4)C3)[C@H](C)[C@H]12 [Example 245]
12 | 1 µg/mL (≈ 1.66 µM) | 32 µg/mL (≈ 53.2 µM) | 2 µg/mL (≈ 3.32 µM) | 2 µg/mL (≈ 3.32 µM) |  | C[C@@H](NC(=O)Cn1cnnn1)[C@H]1C(=O)N2C(C(=O)O)=C(S[C@@H]3CN[C@H](C(=O)N4CCCCC45CCNCC5)C3)[C@H](C)[C@H]12 [Example 476, (4R,5S,6R)-3-((3S,5S)-5-(1,9-diazaspiro[5.5]undecane1-carbonyl)pyrrolidin-3-ylthio)-6-((R)-1-(2-(1H-tetrazol-1-yl)acetamido)ethyl)-4-methyl-7-oxo-1-azabicyclo[3.2.0]hept-2-ene-2-carboxylic acid]
13 | 0.5 µg/mL (≈ 0.887 µM) | 2 µg/mL (≈ 3.55 µM) | 2 µg/mL (≈ 3.55 µM) | 4 µg/mL (≈ 7.1 µM) |  | C[C@@H](NC(=O)Cn1cnnn1)[C@H]1C(=O)N2C(C(=O)O)=C(S[C@@H]3CN[C@H](C(=O)N4CC[C@H](N)[C@@H](O)C4)C3)[C@H](C)[C@H]12 [Example 554, (4R,5S,6R)-6-((R)-1-(2-(1H-tetrazol-1-yl)acetamido)ethyl)-3-((3S,5S)-5-((3S,4S)-4-amino-3-hydroxypiperidine-1-carbonyl)-pyrrolidin-3-ylthio)-4-methyl-7-oxo-1-azabicyclo[3.2.0]hept-2-ene-2-carboxylic acid]
14 | 0.5 µg/mL (≈ 0.812 µM) | 64 µg/mL (≈ 104 µM) | 8 µg/mL (≈ 13 µM) | 8 µg/mL (≈ 13 µM) |  | C[C@@H](NC(=O)Cn1cnnn1)[C@H]1C(=O)N2C(C(=O)O)=C(S[C@@H]3CN[C@H](C(=O)N4CC5CC(NC(=N)N)CC5C4)C3)[C@H](C)[C@H]12 (stereo partly drawn) [Example 581, (4R,5S,6R)-6-((R)-1-(2-(1H-tetrazol-yl)acetamido)ethyl)-3-((3S,5S)-5-(5-guanidinooctahydroyclopenta[c]pyrrole-2-carbonyl)pyrrolidin-3-ylthio)-4-methyl-7-oxo-1-azabicyclo[3.2.0]hept-2-ene-2-carboxylic acid]
15 | 0.5 µg/mL (≈ 0.774 µM) | 2 µg/mL (≈ 3.1 µM) | 2 µg/mL (≈ 3.1 µM) | 2 µg/mL (≈ 3.1 µM) |  | C[C@@H](NC(=O)Cn1cnnn1)[C@H]1C(=O)N2C(C(=O)O)=C(S[C@@H]3CN[C@H](C(=O)N4CCN(C(=O)[C@H]5C[C@@H](N)CN5)CC4)C3)[C@H](C)[C@H]12 [Example 434, (4R,5S,6R)-6-((R)-1-(2-(1H-tetrazol-1-yl)acetamido)ethyl)-3-((3S,5S)-5-(4-((2R,4R)-4-aminopyrrolidine-2-carbonyl)piperazine-1-carbonyl)pyrrolidin-3-ylthio)-4-methyl-7-oxo-1-azabicyclo[3.2.0]hept-2-ene-2-carboxylic acid]
16 | 0.25 µg/mL (≈ 0.424 µM) | 1 µg/mL (≈ 1.7 µM) | 2 µg/mL (≈ 3.39 µM) | 4 µg/mL (≈ 6.78 µM) |  | C[C@@H](NC(=O)Cn1cnnn1)[C@H]1C(=O)N2C(C(=O)O)=C(S[C@@H]3CN[C@H](C(=O)N4C[C@H]5CNC[C@@]5(CO)C4)C3)[C@H](C)[C@H]12 [Example 524, (4R,5S,6R)-6-((R)-1-(2-(1H-tetrazol-1-yl)acetamido)ethyl)-3-((3S,5S)-5-((3aR,6aR)-3a-(hydroxymethyl)octahydropyrrolo[3,4-c]pyrrole-2-carbonyl)pyrrolidin-3-ylthio)-4-methyl-7-oxo-1-azabicyclo[3.2.0]hept-2-ene-2-carboxylic acid]
17 | 0.25 µg/mL (≈ 0.436 µM) | 2 µg/mL (≈ 3.49 µM) | 2 µg/mL (≈ 3.49 µM) | 4 µg/mL (≈ 6.97 µM) |  | C[C@@H](NC(=O)Cn1cnnn1)[C@H]1C(=O)N2C(C(=O)O)=C(S[C@@H]3CN[C@H](C(=O)N4CCC5(CCN5)CC4)C3)[C@H](C)[C@H]12 [Example 365, (4R,5S,6R)-3-((3S,5S)-5-(1,7-diazaspiro[3.5]nonane-7-carbonyl)pyrrolidin-3-ylthio)-6-((R)-1-(2-(1H-tetrazol-1-yl)acetamido)ethyl)-4-methyl-7-oxo-1-azabicyclo[3.2.0]hept-2-ene-2-carboxylic acid]
18 | 0.25 µg/mL (≈ 0.424 µM) | 2 µg/mL (≈ 3.39 µM) | 1 µg/mL (≈ 1.7 µM) | 4 µg/mL (≈ 6.78 µM) |  | C[C@@H](NC(=O)Cn1cnnn1)[C@H]1C(=O)N2C(C(=O)O)=C(S[C@@H]3CN[C@H](C(=O)N4CC5CCNC5(CO)C4)C3)[C@H](C)[C@H]12 (single isomer, unassigned) [Example 555]
19 | 0.25 µg/mL (≈ 0.434 µM) | 0.5 µg/mL (≈ 0.869 µM) | 2 µg/mL (≈ 3.47 µM) | 2 µg/mL (≈ 3.47 µM) |  | C[C@@H](NC(=O)Cn1cnnn1)[C@H]1C(=O)N2C(C(=O)O)=C(S[C@@H]3CN[C@H](C(=O)N4CC[C@H](NC(=N)N)C4)C3)[C@H](C)[C@H]12 [Example 582, (4R,5S,6R)-6-((R)-1-(2-(1H-tetrazol-1-yl)acetamido)-ethyl)-3-((3S,5S)-5-((S)-3-guanidino-pyrrolidine-1-carbonyl)pyrrolidin-3-ylthio)-4-methyl-7-oxo-1-azabicyclo[3.2.0]hept-ene-2-carboxylic acid]
